Assay results as given in ChEMBL document CHEMBL3880423, “Benzamide derivatives as histone deacetylase inhibitors with potent differentiation and anti-proliferation activity” (2009).
The source made the active and inactive calls. The rule behind the calls is not given here.

What was measured:
Assay type in all cases: cell-based
[1] = target: T1, Peroxisome proliferator-activated receptor gamma (Homo sapiens) (UniProt P37231); test: Activation of PPARG (unknown origin) expressed in human U2OS cells at 0.2 uM incubated for 24 hrs by luciferase reporter gene assay
T1 sequence (whole entry): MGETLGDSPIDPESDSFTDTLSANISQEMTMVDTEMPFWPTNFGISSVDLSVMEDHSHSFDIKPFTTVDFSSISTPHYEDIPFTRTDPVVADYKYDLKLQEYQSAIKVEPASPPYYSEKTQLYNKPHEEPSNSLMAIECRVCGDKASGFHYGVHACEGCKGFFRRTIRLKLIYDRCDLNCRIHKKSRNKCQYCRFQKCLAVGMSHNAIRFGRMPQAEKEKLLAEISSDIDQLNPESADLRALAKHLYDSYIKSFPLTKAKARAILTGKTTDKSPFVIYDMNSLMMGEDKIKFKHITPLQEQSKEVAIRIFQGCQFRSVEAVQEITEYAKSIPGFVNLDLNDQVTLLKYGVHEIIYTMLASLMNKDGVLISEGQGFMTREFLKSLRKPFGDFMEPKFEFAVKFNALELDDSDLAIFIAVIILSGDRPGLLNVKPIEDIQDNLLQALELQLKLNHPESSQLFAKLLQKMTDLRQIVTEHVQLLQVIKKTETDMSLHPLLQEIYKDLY

[2] = target: T2, Glucocorticoid receptor (Homo sapiens) (UniProt P04150); test: Activation of glulcocorticoid receptor (unknown origin) expressed in human U2OS cells at 0.2 uM in presence of 0.1 uM dexamethasone incubated for 24 hrs by luciferase reporter gene assay
T2 sequence (whole entry): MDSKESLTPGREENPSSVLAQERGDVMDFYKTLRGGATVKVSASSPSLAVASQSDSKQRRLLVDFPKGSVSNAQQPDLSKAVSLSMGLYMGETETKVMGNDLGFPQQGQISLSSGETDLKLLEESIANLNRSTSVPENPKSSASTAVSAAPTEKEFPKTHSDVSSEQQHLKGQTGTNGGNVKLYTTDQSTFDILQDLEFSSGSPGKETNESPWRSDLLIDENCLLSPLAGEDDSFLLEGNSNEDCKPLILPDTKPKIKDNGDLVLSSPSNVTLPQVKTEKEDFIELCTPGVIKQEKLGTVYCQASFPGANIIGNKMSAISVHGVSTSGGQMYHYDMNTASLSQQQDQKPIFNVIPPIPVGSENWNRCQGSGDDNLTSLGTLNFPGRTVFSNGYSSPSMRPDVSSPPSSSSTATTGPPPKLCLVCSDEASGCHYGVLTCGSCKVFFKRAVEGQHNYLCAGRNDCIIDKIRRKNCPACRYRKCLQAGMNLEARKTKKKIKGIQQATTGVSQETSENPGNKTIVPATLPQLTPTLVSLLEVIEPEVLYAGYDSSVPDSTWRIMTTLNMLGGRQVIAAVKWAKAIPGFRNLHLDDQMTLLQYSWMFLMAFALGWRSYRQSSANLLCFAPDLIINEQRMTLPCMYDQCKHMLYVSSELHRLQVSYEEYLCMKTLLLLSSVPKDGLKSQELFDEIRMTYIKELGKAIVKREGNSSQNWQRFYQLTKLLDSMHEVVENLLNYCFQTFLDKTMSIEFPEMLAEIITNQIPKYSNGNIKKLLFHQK

[3] = target: T3, Estrogen receptor (Homo sapiens) (UniProt P03372); test: Activation of ERalpha (unknown origin) expressed in human U2OS cells at 0.2 uM in presence of 0.01 uM E2 incubated for 24 hrs by luciferase reporter gene assay
T3 sequence (whole entry): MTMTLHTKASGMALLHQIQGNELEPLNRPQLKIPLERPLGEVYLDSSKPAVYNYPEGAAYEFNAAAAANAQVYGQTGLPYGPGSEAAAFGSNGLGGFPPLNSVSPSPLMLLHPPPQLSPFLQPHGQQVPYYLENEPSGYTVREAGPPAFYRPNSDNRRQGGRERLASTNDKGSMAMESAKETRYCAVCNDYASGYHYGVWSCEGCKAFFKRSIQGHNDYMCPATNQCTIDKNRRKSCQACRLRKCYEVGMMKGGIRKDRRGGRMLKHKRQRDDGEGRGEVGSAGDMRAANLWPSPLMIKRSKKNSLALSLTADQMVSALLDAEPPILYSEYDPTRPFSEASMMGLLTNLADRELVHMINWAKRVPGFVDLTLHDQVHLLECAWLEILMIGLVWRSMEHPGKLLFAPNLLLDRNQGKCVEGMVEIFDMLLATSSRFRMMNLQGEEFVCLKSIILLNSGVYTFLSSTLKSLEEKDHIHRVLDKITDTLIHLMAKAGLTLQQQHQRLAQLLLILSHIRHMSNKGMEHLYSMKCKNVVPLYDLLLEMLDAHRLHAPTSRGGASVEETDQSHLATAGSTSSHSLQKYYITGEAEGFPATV

[4] = target: T3, Estrogen receptor (Homo sapiens); test: Activation of ERalpha (unknown origin) expressed in human U2OS cells at 0.2 uM incubated for 24 hrs by luciferase reporter gene assay
[5] = target: Estrogen receptor beta (Homo sapiens) (UniProt Q92731); test: Activation of ERbeta (unknown origin) expressed in human U2OS cells at 0.2 uM incubated for 24 hrs by luciferase reporter gene assay
Chain of Estrogen receptor beta (Homo sapiens) (Q92731 whole entry): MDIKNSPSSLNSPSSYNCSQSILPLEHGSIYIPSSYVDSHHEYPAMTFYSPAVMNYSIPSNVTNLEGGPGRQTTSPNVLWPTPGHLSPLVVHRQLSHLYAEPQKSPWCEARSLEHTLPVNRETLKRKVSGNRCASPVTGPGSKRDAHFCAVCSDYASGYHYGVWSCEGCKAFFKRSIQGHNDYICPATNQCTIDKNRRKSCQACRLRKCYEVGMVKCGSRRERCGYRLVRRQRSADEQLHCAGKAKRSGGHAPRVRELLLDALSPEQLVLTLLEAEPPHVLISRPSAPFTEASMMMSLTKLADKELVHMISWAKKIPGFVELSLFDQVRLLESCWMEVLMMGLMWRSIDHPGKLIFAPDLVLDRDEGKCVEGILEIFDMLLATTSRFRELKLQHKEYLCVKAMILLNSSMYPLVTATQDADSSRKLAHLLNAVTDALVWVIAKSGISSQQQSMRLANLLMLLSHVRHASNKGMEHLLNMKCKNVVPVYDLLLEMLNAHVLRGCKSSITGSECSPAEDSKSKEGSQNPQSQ

[6] = target: Estrogen receptor beta (Homo sapiens) (UniProt Q92731); test: Activation of ERbeta (unknown origin) expressed in human U2OS cells at 0.2 uM in presence of 0.01 uM E2 incubated for 24 hrs by luciferase reporter gene assay
[7] = target: T2, Glucocorticoid receptor (Homo sapiens); test: Activation of glulcocorticoid receptor (unknown origin) expressed in human U2OS cells at 0.2 uM incubated for 24 hrs by luciferase reporter gene assay
[8] = target: T1, Peroxisome proliferator-activated receptor gamma (Homo sapiens); test: Activation of PPARG (unknown origin) expressed in human U2OS cells at 0.2 uM in presence of 10 uM rosiglitazone incubated for 24 hrs by luciferase reporter gene assay
[9] = target: T1, Peroxisome proliferator-activated receptor gamma (Homo sapiens); test: Activation of PPARG (unknown origin) expressed in human U2OS cells at 1 uM incubated for 24 hrs by luciferase reporter gene assay
[10] = target: Estrogen receptor beta (Homo sapiens) (UniProt Q92731); test: Activation of ERbeta (unknown origin) expressed in human U2OS cells at 1 uM incubated for 24 hrs by luciferase reporter gene assay
[11] = target: T3, Estrogen receptor (Homo sapiens); test: Activation of ERalpha (unknown origin) expressed in human U2OS cells at 1 uM in presence of 0.01 uM E2 incubated for 24 hrs by luciferase reporter gene assay
[12] = target: Estrogen receptor beta (Homo sapiens) (UniProt Q92731); test: Activation of ERbeta (unknown origin) expressed in human U2OS cells at 1 uM in presence of 0.01 uM E2 incubated for 24 hrs by luciferase reporter gene assay
[13] = target: T2, Glucocorticoid receptor (Homo sapiens); test: Activation of glulcocorticoid receptor (unknown origin) expressed in human U2OS cells at 1 uM incubated for 24 hrs by luciferase reporter gene assay
[14] = target: T3, Estrogen receptor (Homo sapiens); test: Activation of ERalpha (unknown origin) expressed in human U2OS cells at 1 uM incubated for 24 hrs by luciferase reporter gene assay
[15] = target: T1, Peroxisome proliferator-activated receptor gamma (Homo sapiens); test: Activation of PPARG (unknown origin) expressed in human U2OS cells at 1 uM in presence of 10 uM rosiglitazone incubated for 24 hrs by luciferase reporter gene assay
[16] = target: T2, Glucocorticoid receptor (Homo sapiens); test: Activation of glulcocorticoid receptor (unknown origin) expressed in human U2OS cells at 1 uM in presence of 0.1 uM dexamethasone incubated for 24 hrs by luciferase reporter gene assay

Row | Activity [1] | Activity [2] | Activity [3] | Activity [4] | Activity [5] | Activity [6] | Activity [7] | Activity [8] | Activity [9] | Activity [10] | Activity [11] | Activity [12] | Activity [13] | Activity [14] | Activity [15] | Activity [16] | SMILES
1 | Active | Active | Active | Active | Active | Active | Active | Active |  |  |  |  |  |  |  |  | CC(/C=C/C(=O)NO)=C\[C@@H](C)C(=O)c1ccc(N(C)C)cc1
2 |  |  |  |  |  |  |  |  | Active | Active | Active | Active | Active | Active | Active | Active | Nc1ccccc1NC(=O)c1ccc(CNC(=O)OCc2cccnc2)cc1
3 |  |  |  |  |  |  |  |  | Active | Active | Active | Active | Active | Active | Active | Active | Nc1cc(F)ccc1NC(=O)c1ccc(CNC(=O)/C=C/c2cccnc2)cc1
